# In patent US20120066778A1, “CONTROL OF URIC ACID HOMEOSTASIS” (priority 2009, published 2012):
# B1: mUox: intracellular variant of the urate oxidase from Aspergillus flavus codon-optimized for expression in mammalian cells (protein, UniProt Q00511 2-302, looked up)
# Uricase: SAVKAARYGKDNVRVYKVHKDEKTGVQTVYEMTVCVLLEGEIETSYTKADNSVIVATDSIKNTIYITAKQNPVTPPELFGSILGTHFIEKYNHIHAAHVNIVCHRWTRMDIDGKPHPHSFIRDSEEKRNVQVDVVEGKGIDIKSSLSGLTVLKSTNSQFWGFLRDEYTTLKETWDRILSTDVDATWQWKNFSGLQEVRSHVPKFDATWATAREVTLKTFAEDNSASVQATMYKMAEQILARQQLIETVEYSLPNKHYFEIDLSWHKGLQNTGKNAEVFAPQSDPNGLIKCTVGRSSLKSKL
# modifications: codon-optimized for mammalian expression
# notes: intracellular variant of the urate oxidase from Aspergillus flavus codon-optimized for expression in mammalian cells
# Key:
# [1] = tested on: UREX sensor circuit (mUTS, hucO8); test: Uric acid response of UREX-controlled SEAP expression in cultured human cells; format: cell-based; conditions: 5 mM uric acid added to cultures transfected with pCK9 and pCK25, 48 h
# Experimental: (d) Functional validation of the UREX sensor circuit. 4×10^4 HeLa cells were co-transfected with the UREX expression vectors pCK9 and pCK25 (see FIG. 1a) and cultivated for 48 h in the presence or absence of 5 mM uric acid before SEAP was quantified in the cell culture supernatant.
# (e-g) Urate-dependent dose-response characteristics of UREX in the presence and absence of the human urate transporter URAT1. 3×10^5 HeLa (e), HEK-293 (f) or HT-1080 cells (g) were co-transfected with the UREX sensor plasmids pCK9 and pCK25 (see FIG. 1a) and either pURAT1 (PhCMV-URAT1-pA) or the isogenic control vector pcDNA3.1. The transfected populations were cultivated in medium supplemented with different uric acid concentrations and resulting SEAP levels were profiled after 48 h.
# (b) Urate-based dose-response profile of the triple-transgenic HEK-293UREX15 cell line stably engineered for UREX-controlled SEAP and constitutive URAT1 expression. 5×10^4 HEK-293UREX15 were cultivated in the presence of different urate concentrations and SEAP levels were quantified in the culture supernatant after 72 h.
# (c) Reversibility of the UREX-based uric acid sensor circuit. 2×10^5 HEK-293UREX15 cells were cultivated for 10 days while alternating uric acid concentrations from 0 to 5 mM every 72 h (arrows). […]
# uric acid = test: Urate reduction in culture medium by mUox/smUox-expressing HeLaURAT1 cells; format: cell-based, human; conditions: HeLaURAT1, 0.5 mM uric acid, 72 h, constitutive or mUTS-controlled expression
# Experimental: (a) Profiling of urate reduction mediated by constitutive or UREX-controlled expression of an intracellular (mUox) or secretion-engineered (smUox) urate oxidase variant. 2×10^5 HeLaURAT1 cells were co-transfected with either (i) pCK65 (PUREX8-smUox-pA) and isogenic control vector pcDNA3.1, (ii) pCK65 (PUREX8-smUox-pA) and pCK25 (PhEF1α-mUTS-pA), (iii) pCK67 (PUREX8-mUox-pA) and pcDNA3.1 or (iv) pCK67 (PUREX8-mUox-pA) and pCK25 (PhEF1α-mUTS-pA). The cells were cultivated for 72 h with 0.5 mM uric acid before urate levels were determined in the culture supernatant.
# (b) Urate degradation profiles UREX-controlled smUox expression. […]
# SEAP levels are quantified in cell culture supernatants and mouse serum using a standard p-nitrophenylphosphate-based light absorbance time course (Berger, J., Hauber, J., Hauber, R., Geiger, R. & Cullen, B. R., Gene 66, 1-10 (1988)). Uric acid levels are assessed in cell culture supernatants, murine serum or urine using the Amplex® Red uric acid/uricase assay kit (Invitrogen, Basel, Switzerland, Cat. No. A22181) according to the manufacturer's protocol. […] The addition of uricase triggers the enzymatic conversion of uric acid to allantoin, CO2 and H2O2 that reacts, in the presence of horseradish peroxidase stoichiometrically with Amplex Red reagent to generate the red-fluorescent oxidation product resorufin which can be quantified at 585 nm.
Molecule,effect on SEAP expression [1],reduction of uric acid in the culture medium (uric acid)
"O=c1[nH]c(=O)c2[nH]c(=O)[nH]c2[nH]1 [uric acid, 7,9-dihydro-3H-purine-2,6,8-trione]",derepresses SEAP expression,
B1,,reduces uric acid
